Test results published in patent EP4782453A1 (Beyang Therapeutics Co., Ltd., priority 2023, dated 2025).

Legend:
MEIS1 gene expression = test: Inhibition of MEIS1 gene expression in human tumor cells (qRT-PCR), MOLM-13; type: cell-based; conditions: MOLM-13 (carrying MLL-AF9), 48 hours of incubation, relative MEIS1 gene expression vs GAPDH
Text: Experimental Example 3: Evaluation of Inhibitory Activity of Compounds Against MEISI Gene Expression in Human Tumor Cells
The effect of test samples on MEIS1 gene expression in vitro cultured human leukemia cells MV-4-11 (carrying MLL-AF4), MOLM-13 (carrying MLL-AF9), and OCI-AML3 (carrying NPM1c) was studied.
• Human acute lymphoblastic leukemia cells MV-4-11, purchased from American Type Culture Collection, Catalog Number: CRL-9591; • Human acute myeloid leukemia cells MOLM-13, purchased from COBIOER BIOSCIENCES CO., LTD, Catalog Number: CBP60678; • Human acute myeloid leukemia cells OCI-AML3, purchased from COBIOER BIOSCIENCES CO., LTD, Catalog Number: CBP60817; • MEIS1 Primer/Probe, purchased from IDT, Catalog Number: 40831613; and • GAPDH Primer/Probe, purchased from IDT, Catalog Number: 22214836.
MV-4-11 cells were cultured in an IMDM medium containing 10% fetal bovine serum, or MOLM-13 and OCI-AML3 cells were cultured in an RPMI-1640 medium containing 20% fetal bovine serum, each supplemented with 100 U·mL^-1 penicillin and 100 µg·mL^-1 streptomycin. These cells were cultured at 37°C with 5% CO2. The suspensions of individual cell lines were prepared in their respective media and seeded into 48-well plates at a density of 100,000 cells/well. On the day of the experiment, a compound stock solution was diluted in a 6-fold gradient using DMSO. Each gradient-diluted stock solution was then further diluted 250-fold with a complete medium to prepare a series of working solutions at different concentrations. Next, 250 µL of working solution (containing the complete medium with a 2-fold serial concentration of the test compound or a positive control compound, or containing a control complete medium) was added to each well. After 48 hours of incubation, cells from the 48-well plate were collected into 1 mL centrifuge tubes, centrifuged at 1000 rpm for 5 minutes, and the complete medium was removed. Cells were washed twice with 1 mL PBS and centrifuged to remove PBS. Total RNA was extracted using the RNeasy Mini Kit (250) (QIAGEN, 74106). The threshold cycle (Ct) value for gene expression was determined using the HiScript II U+ One Step qRT-PCR Probe Kit (Vazyme) (Vazyme, Q223-01), with 3 replicates per sample. The prepared reaction mixture was placed in an ABI 7500 real-time PCR instrument, and the reaction proceeded following the procedures below. [formula]
Next, for the relative MEIS1 gene expression, the concentration (EC50) that inhibits 50% of relative MEIS1 gene expression was calculated using GraphPad Prism 8 software.

[1] = system: MOLM-13 (carrying MLL-AF9); test: Inhibition of proliferation of human tumor cells (Alamar Blue, 7 days), MOLM-13; type: cell-based; conditions: Homo sapiens, 168 h, MOLM-13 cells (carrying MLL-AF9), method calls the value GI50
Summary of the method: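 GI50 values reflect growth inhibition over 7 days, read by Alamar Blue. Seeding density was 4,000 cells/well except KG-1a (3,000 cells/well); each line grew in its own FBS-containing medium at 37°C.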

SMILES | EC50 (MEIS1 gene expression) [nM] | IC50 [1] [nM]
CCN(C(=O)c1cc(F)ccc1-c1cc(C2CN([C@H](CCCN3CCN(C(C)=O)CC3)C(C)C)C2)cn2c(C)ncc12)C(C)C [Example 311-2, 2-(6-{1-[(3R)-6-(4-acetylpiperazin-1-yl)-2-methylhexan-3-yl]azacyclobutan-3-yl}-3-methylimidazo[1,5-a]pyridin-8-yl)-N-ethyl-5-fluoro-N-(isopropyl)benzamide] | 11 | 26
CCN(C(=O)c1cc(F)ccc1-c1cc(C2CN([C@H](CCCN3CCN(C)CC3)C(C)C)C2)cn2c(C)ncc12)C(C)C [Example 310-2, N-ethyl-5-fluoro-2-(3-methyl-6-{1-[(3R)-2-methyl-6-(4-methylpiperazin-1-yl)hexan-3-yl]azacyclobutan-3-yl}imidazo[1,5-a]pyridin-8-yl)-N-(isopropyl)benzamide] | 6.5 | 6.2
CCN(C(=O)c1cc(F)ccc1-c1cc(C2CN(C[C@H]3CC[C@H](NS(=O)(=O)CC)CC3)C2)cn2c(C)nc(F)c12)C(C)C [Example 137] | 9 | 10
Cc1nc(F)c2c(-c3ccc(F)cc3C(=O)N3CCOC[C@H]3C)cc(C3CN([C@H](CCCN4CCC(F)CC4)C(C)C)C3)cn12 [Example 314] | 3.4 | 7.3
CCN(C(=O)c1cc(F)ccc1-c1cc(C2CN([C@H](CCCN3CCN(C)CC3)C(C)C)C2)cn2c(C)nc(F)c12)C(C)C [Example 312-2] | 2.5 | 5.3
CCN(C(=O)c1cc(F)ccc1-c1cc(C2CN([C@@H](C)C3CCN(C(=O)CO)CC3)C2)cn2c(C)nc(F)c12)C(C)C [Example 284-2] | 5.9 | 6.8
COCCN(C)CCCC(C(C)C)N1CC(c2cc(-c3ccc(F)cc3C(=O)N(CC(F)F)C(C)C)c3c(F)nc(C)n3c2)C1 (stereo not shown) [Example 142, N-(2,2-difluoroethyl)-5-fluoro-2-[1-fluoro-6-(1-{6-[(2-methoxyethyl)(methyl)amino]-2-methylhexan-3-yl}azacyclobutan-3-yl)-3-methylimidazo[1,5-a]pyridin-8-yl]-N-(isopropyl)benzamide] | 2.3 | 10

Results, then the molecule that gave them:

EC50 (MEIS1 gene expression) [nM] | IC50 [1] [nM] | SMILES
4.6 | 15 | CCN(C(=O)c1cc(F)ccc1-c1cc(C2CN([C@H](CN3CCN(CCO)CC3)C(C)C)C2)cn2c(C)ncc12)C(C)C [Example 431, N-ethyl-5-fluoro-2-(6-{1-[(2S)-1-[4-(2-hydroxylethyl)piperazin-1-yl]-3-methylbutan-2-yl]azacyclobutan-3-yl}-3methylimidazo[1,5-a]pyridin-8-yl)-N-(isopropyl)benzamide]
4 | 4.6 | Cc1nc(F)c2c(-c3ccc(F)cc3C(=O)N3CCOC[C@H]3C)cc(C3CN([C@H](CCCN4CCN(C5CC5)CC4)C(C)C)C3)cn12 [Example 350]
10 | 17 | Cc1nc(F)c2c(-c3ccc(F)cc3C(=O)N3CCOC[C@H]3C)cc(C3CN([C@H](CO[C@H]4CCCN(C)C4)C(C)C)C3)cn12 [Example 321-2, (3R)-4-[5-fluoro-2-(1-fluoro-3-methyl-6-{1-[(2S)-3-methyl-1-{[(3S)-1-methylpiperidin-3-yl]oxy}butan-2-yl]azacyclobutan-3-yl}imidazo[1,5-a]pyridin-8yl)benzoyl]-3-methylmorpholine]
1.1 | 5.3 | Cc1nc(F)c2c(-c3ccc(F)cc3C(=O)N3CCOC[C@H]3C)cc(C3CN(C(CC[C@@H]4COCCN4)C(C)C)C3)cn12 (stereo partly drawn) [Example 371, (3R)-4-{5-fluoro-2-[1-fluoro-3-methyl-6-(1-{4-methyl-1-[(3R)-morpholin-3-yl]pentan-3-yl}azacyclobutan-3-yl)imidazo[1,5-a]pyridin-8-yl]benzoyl}-3-methylmorpholine]
